Patent publication US20230123334A1, “AMINO LIPID COMPOUND, PREPARATION METHOD THEREFOR, AND APPLICATION THEREOF” (SHENZHEN SHENXIN BIOTECHNOLOGY CO., LTD., priority 2020, published 2023)

Legend:
Type in all cases: cell-based
MCF7 cells [1] = assay: Transfection of MCF7 cell line, DNA vectors; set-up: concentration or dose not given beside the values; conditions: plasmid DNA, GFP cells / total cells
Description: (§1) Cell line: MCF7 cells (ATCC HTB-22)
Medium DMEM supplemented with […] fetal bovine serum
(§2) Screening: cell transfection on 96-well plates
Detection (readout): percentage of the number of GFP fluorescent cells relative to the total number of cells (the total number of cells was determined using nucleus dye Hoechst). Lipofectamine2000 was used as the positive control, according to the manufacturer's instructions.
Method: the experimental method was basically the same with Example 4.

Hela cells [2] = assay: Transfection of Hela cell line, DNA vectors; conditions: 75 ng plasmid DNA, GFP cells / total cells
Outline: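 Amino lipid/DOPE liposomes in sodium acetate pH 5.6 were complexed with 75 ng psin-EGFP-IRES-Puro plasmid for 30 min at room temperature, then mixed with 3-5×10^4 Hela cells in DMEM/10% FBS at 37° C. Hoechst stain after 20-24 h, imaging after a further 20-24 h. Efficiency = GFP-positive cells / total nuclei.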

Hela cells [3] = assay: Transfection of Hela cell line, mRNA vectors; conditions: 50 ng EGFP mRNA per well
Outline: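 Transfection efficiency was scored as GFP-fluorescent cells over Hoechst-stained total nuclei, with Lipofectamine2000 as reference reagent. Each well of HeLa cells, grown in DMEM plus 10% FBS, received 50 ng EGFP mRNA.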

MCF7 cells [4] = assay: Transfection of MCF7 cell line, mRNA vectors; conditions: 50 ng EGFP mRNA per well
Description: as §1
Medium: DMEM supplemented with 10 fetal bovine serum (Invitrogen)
as §2
Detection (readout): percentage of the number of GFP fluorescent cells relative to the total number of cells (the total number of cells was determined using nucleus dye Hoechst). Lipofectamine2000 (Invitrogen) was used as the positive control.
Method: the experimental method was basically the same with Example 4, and the mass of EGFP mRNA (TriLink) for transfection was 50 ng per well.

HEK293 cells [5] = assay: Preliminary screening as mRNA vectors, EGFP mRNA transfection of HEK293 cells; conditions: HEK293 cells, 96-well plates, EGFP mRNA 50 ng per well; percentage of GFP fluorescent cells relative to total number of cells (Hoechst)
Outline: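 Each well of HEK293 cells received 50 ng of EGFP mRNA. Efficiency was expressed as percent GFP-expressing cells over Hoechst-defined total cell number.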

HEK293 cells [6] = assay: Preliminary screening as DNA vectors, GFP transfection of HEK293 cells; conditions: HEK293 cells; lipid/DOPE liposome with 75 ng plasmid DNA (psin-EGFP-IRES-Puro); number of cells expressing GFP divided by total number of nuclei (Hoechst)
Outline: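 Lipid + DOPE liposomes (NaOAc, pH 5.6) complexed w/ 75 ng psin-EGFP-IRES-Puro, 30 min RT; added to 3-5×10^4 HEK293/well, 37° C. Hoechst 0.2 μg/mL at 20-24 h, imaged after further 20-24 h. Efficiency = GFP+ cells / total nuclei.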

Row | Compound | Absolute DNA transfection efficiency in MCF7 cells (MCF7 cells [1]) | Absolute DNA transfection efficiency in Hela cells (Hela cells [2]) | Absolute mRNA transfection efficiency in Hela cells (Hela cells [3]) | Absolute mRNA transfection efficiency in MCF7 cells (MCF7 cells [4]) | Absolute mRNA transfection efficiency in HEK293 cells (HEK293 cells [5]) | Absolute DNA transfection efficiency in HEK293 cells (HEK293 cells [6])
1 | CCCCCCCCCCCCNc1nc(NCCCN2CCOCC2)nc(SCCCCCCCC)n1 [Compound S8N12D8] | 2.1% | 8.4% | 8.4% | 0.3% | – | –
2 | CCCCCCCCCCCCNc1nc(NCCCN2CCN(C)CC2)nc(SCCCCCCCC)n1 [Compound S8N12D9] | 32.0% | 24.4% | 24.1% | 16.4% | – | –
3 | CCCCCCCCCCCCNc1nc(NCC2CCN(C)CC2)nc(SCCCCCCCC)n1 [Compound S8N12D10] | 40.6% | 22.6% | 22.6% | 23.1% | – | –
4 | CCCCCCCCCCCCCNc1nc(NCCN2CCCC2)nc(SCCCCCCCC)n1 [Compound S8N13D3] | 19.9% | 15.7% | 15.7% | 18.1% | – | –
5 | CCCCCCCCCCCCCNc1nc(NCCN2CCN(C)CC2)nc(SCCCCCCCC)n1 [Compound S8N13D5] | 24.5% | 14.7% | 14.7% | 9.2% | – | –
6 | CCCCCCCCCCCCCNc1nc(NCCCN(C)C)nc(SCCCCCCCC)n1 [Compound S8N13D6] | 32.2% | 27.6% | 27.6% | 33.4% | – | –
7 | CCCCCCCCCCCCCNc1nc(NCCCN2CCOCC2)nc(SCCCCCCCC)n1 [Compound S8N13D8] | 0.9% | 6.6% | 6.6% | 0.4% | – | –
8 | CCCCCCCCCCCCCNc1nc(NCCCN2CCN(C)CC2)nc(SCCCCCCCC)n1 [Compound S8N13D9] | 25.8% | 13.9% | 13.4% | 13.3% | – | –
9 | CCCCCCCCCCCCCNc1nc(NCC2CCN(C)CC2)nc(SCCCCCCCC)n1 [Compound S8N13D10] | 41.7% | 9.5% | 9.5% | 23.0% | – | –
10 | CCCCCCCCCNc1nc(NCCN2CCCC2)nc(SCCCCCCCCC)n1 [Compound S9N9D3] | 8.6% | 27.4% | 27.4% | 12.1% | – | –
11 | CCCCCCCCCNc1nc(NCCN2CCN(C)CC2)nc(SCCCCCCCCC)n1 [Compound S9N9D5] | 21.2% | 23.9% | 23.9% | 8.3% | – | –
12 | CCCCCCCCCNc1nc(NCCCN(C)C)nc(SCCCCCCCCC)n1 [Compound S9N9D6] | 11.0% | 30.3% | 30.3% | 30.7% | – | –
13 | CCCCCCCCCNc1nc(NCCCN2CCOCC2)nc(SCCCCCCCCC)n1 [Compound S9N9D8] | 7.8% | 7.4% | 7.4% | 2.6% | – | –
14 | CCCCCCCCCNc1nc(NCCCN2CCN(C)CC2)nc(SCCCCCCCCC)n1 [Compound S9N9D9] | 42.3% | 25.6% | 25.6% | 21.0% | – | –
15 | CCCCCCCCCNc1nc(NCC2CCN(C)CC2)nc(SCCCCCCCCC)n1 [Compound S9N9D10] | 38.9% | 17.6% | 17.6% | 29.6% | – | –
16 | CCCCCCCCCCCCCCCCSc1nc(NCCN2CCCC2)nc(SCCCCCCCCC)n1 [Compound S9S16D3] | 14.1% | 0.0% | 0.0% | 3.0% | 25.3% | 0.0%
17 | CCCCCCCCCCCCCCCCSc1nc(NCCCN(C)C)nc(SCCCCCCCCC)n1 [Compound S9S16D6] | 39.7% | 27.8% | 27.8% | 34.2% | 71.5% | 55.4%
18 | CCCCCCCCCCCSc1nc(NCCCCCCC)nc(NCCN2CCCC2)n1 [Compound S11N7D3] | 4.4% | 9.8% | 9.8% | 5.8% | – | –
19 | CCCCCCCCCCCSc1nc(NCCCCCCC)nc(NCCN2CCN(C)CC2)n1 [Compound S11N7D5] | 4.7% | 11.4% | 11.4% | 3.4% | – | –
20 | CCCCCCCCCCCSc1nc(NCCCCCCC)nc(NCCCN(C)C)n1 [Compound S11N7D6] | 16.2% | 17.0% | 17.0% | 4.2% | – | –
21 | CCCCCCCCCCCSc1nc(NCCCCCCC)nc(NCCCN2CCOCC2)n1 [Compound S11N7D8] | 1.7% | 6.7% | 6.7% | 3.2% | – | –
22 | CCCCCCCCCCCSc1nc(NCCCCCCC)nc(NCCCN2CCN(C)CC2)n1 [Compound S11N7D9] | 5.8% | 8.3% | 8.3% | 5.1% | – | –
23 | CCCCCCCCCCCSc1nc(NCCCCCCC)nc(NCC2CCN(C)CC2)n1 [Compound S11N7D10] | 10.1% | 14.7% | 14.7% | 9.0% | – | –
